# No end group written: not given here.
# How the values were obtained:
# [1] = cited from earlier work
# [2] = system: blood-brain barrier; conditions: cited from earlier work
# [3] = system: mouse brain (blood-brain barrier); conditions: mouse, in vivo
# Description: Briefly, male C57BL/6J mice (n=43, 6-8 weeks old, 20-25 g, Jackson Laboratory) were anesthetized with 2% isoflurane. The common carotid artery (CCA) bifurcation was exposed and the occipital artery branching off from the external carotid artery (ECA) was coagulated. The ECA and the pterygopalatine artery (PPA) were temporarily ligated with 4-0 silk sutures. A temporary ligature using a 4-0 suture was placed on the carotid bifurcation and the proximal CCA was permanently ligated. A microcatheter (PE-8-100, SAI Infusion Technologies) was flushed with 2% heparin (1,000 U mL^−1, heparin sodium, Upjohn), inserted into the CCA via a small arteriotomy, and advanced into the internal carotid artery (ICA).
# For each animal, 150 μL of solution was infused at a rate of 150 μL minute^−1. […] The brains were harvested immediately after Evans Blue injection, sectioned in brain slicer matrix (Zivic Instruments) to produce 1 mm slabs.
# Animal anesthesia was maintained at 1.5-2% during the MRI scan. Mice were placed on a water-heated animal bed equipped with temperature and respiratory control. Respiration was monitored and maintained at 30-60 minutes^−1. All MRI experiments were performed on a Bruker 11.7T MRI scanner. Baseline T2 (TR/TE=2,500/30 ms), susceptibility-weighted imaging (SWI) (TR/TE=378/8 ms), T1 (TR/TE 350/6.7 ms)-weighted, dynamic gradient echo echo-planar imaging (GE-EPI, TR/TE 1250/9.7 ms, field of view (FOV)=14×14 mm, matrix=128×128, acquisition time=60 s and 24 repetitions) and dynamic T1 imaging (TR/TE 2000/3. 5ms, field of view=14×14 mm, acquisition time=8 seconds and 20 repetitions) images of the brain were acquired. The microcatheter was connected to a syringe mounted on an MRI compatible programmable syringe pump (PHD 2000, Harvard Apparatus Inc.). Gadolinium (Gd; Prohance) dissolved in saline at 1:50 was infused intra-arterially at the rate of 150 μL minute^−1 under dynamic GE-EPI MRI for visualization of perfusion territory. […] To quantify BBB status, T1 intensities in cortex, hippocampus and thalamus/hypothalamus were compared between ipsilateral and contralateral hemispheres. T1 hyperintensity was corrected for possible asymmetry using pre-contrast T1 images and normalized as the ratio of ipsilateral to contralateral intensity. Additionally, the area of BBBO (mm^2) was calculated by conversion of T1 images to binary using the Auto Threshold function (plugin v1.17; Maximum Entropy method) [Kapur, J. N., P. K. Sahoo, and A. K. C. Wong, Computer Vision, Graphics, and Image Processing, 1985, 29(3): p. 273-285] in ImageJ. T2-weighted and SWI images were acquired at the same timepoints for detection of brain damage and microhemorrhage. Subsequently, animals were sacrificed for further histological assessment.
# To determine the area and region of perfusion territory, we first calculated the contrast enhancement maps at the time where contrast enhancement was at its maximum. As Gd causes negative contrast under T2 imaging, we calculated the contrast enhancement as (SIpre-SIpost)/SIpre, where SI is the signal intensity of an MR image. Histogram was plotted for all pixels in the brain region in a contrast enhancement map and further fitted into two Gaussian distributions, assuming there were two dominant populations for non-contrast enhanced and contrast-enhanced pixels, respectively. The cutoff value to separate the two populations was then determined. The fraction of contrast enhanced areas was calculated by the ratio of the number of pixels, whose values are larger than the cutoff value, to the total number of pixels in the brain. A similar method was used to determine the BBBO territory.
# [4] = system: tissue-engineered dhBMECs microvessels; experiment: BBB opening in tissue-engineered BBB microvessels (500 kDa dextran leakage); format: cell-based, human
# Experimental: Three-dimensional blood-brain barrier microvessels were fabricated as previously reported (FIGS. 10A and 10B) [Linville, R. M., et al., Biomaterials, 2019. 190-191: p. 24-37] 150 μm diameter and 1 cm long channels were patterned in 7 mg mL^−1 type I collagen (Corning) using nitinol wire (Malin Co.) housed within polydimethylsiloxane (PDMS; Dow Corning). Channels were cross-linked by incubation in 20 mM genipin (Wako Biosciences) for 2 hours to increase cell adhesion. 2dhBMECs were suspended in BBB induction medium at a concentration of 5×10^6 cells mL^−1 and seeded into channels. Microvessels were perfused using BBB induction medium for 24 hours and then switched to BBB maintenance medium. During cell seeding and the first day of perfusion, 10 μM ROCK inhibitor Y27632 (ATCC) was supplemented to increase adhesion. An average shear stress of ˜2 dyn cm^−2 was maintained with a reservoir height difference (Δh) of 3 cm, corresponding to a volumetric flow rate of ˜250 μL h^−1 (FIG. 11D). This shear stress was estimated from the Poiseuille equation: τ=μQ)/2πd3 where μ is the media dynamic viscosity, Q is the volumetric flow rate, and d is the microvessel diameter.
# Live-cell imaging was conducted to study dynamic changes in in vitro BBB permeability and microvessel structure. Microvessels were imaged using a 10×objective equipped on an inverted microscope (Nikon Eclipse TiE) maintained at 37° C. and 5% CO2 (FIG. S2C). Epifluorescence illumination was provided by an X-Cite 120LEDBoost (Excelitas Technologies). Phase contrast and fluorescence images were acquired every two minutes with the focal plane set to the microvessel midplane. The entire image collected consists of ten adjacent imaging frames. […] A dextran solute panel comprised of 200 μM Cascade Blue-conjugated 3 kDa dextran (Cat. No. D7132. Thermo Fisher Scientific), 16 μM Alexa Fluor647-conjugated 10 kDa dextran (Cat. No. D22914, Thermo Fisher Scientific), and 1.2 μM fluorescein-conjugated 500 kDa dextran (Cat. No. D7136, Thermo Fisher Scientific) was prepared in BBB maintenance medium. Fluorophores were independently excited and the respective emissions were collected using: Nikon UV-2E/C for 3 kDa dextran (50 ms exposure), Chroma 41008 for 10 kDa dextran (20 ms exposure), and Nikon B-2E/C for 500 kDa dextran (50 ms exposure).
# Image processing was performed using ImageJ (NIH) to quantify BBB opening (FIGS. 11A-11D). First, images were cropped to a standard size of 6 mm×0.6 mm. To determine the spatial heterogeneity of BBB permeability, microvessels were sectioned into 10 regions of interest (ROIs), each a 0.6 mm×0.6 mm square (FIG. 11A). For each ROI, the integrated pixel density was plotted over time (FIG. 11A). The permeability (cm s^−1) was calculated using P=(r/2)(1/ΔI)(dI/dt), where r is the vessel radius, ΔI is the increase in fluorescence intensity upon perfusion of the fluorophore, and (dI/dt) is the rate of increase in fluorescence intensity as solute exits into the gel. […] To visually display permeability dynamics, heatmaps were generated from 90 instantaneous permeability values across the 10 ROIs (x-axis) and nine 10-minute periods (y-axis). […] 28(1): p. 41-51 in ImageJ (FIG. 11B). Under baseline conditions, thresholding results in the lumen designated as white (1) and extracellular matrix (ECM) as black (0). […] From binarized images, individual focal leaks were manually counted over time. Leaks emerging from the sides of the image frame were not counted. To quantify the duration of a BBB opening effect, we identified the time at which the last focal leak appeared and termed the focal leak reversibility time constant (τfocal leaks).
# [5] = 25, 50, and 100 μM·minute doses
molecule,measurement,setting,value
OC[C@@H](O)[C@@H](O)[C@H](O)[C@H](O)CO [mannitol],solubility limit,[1],around 1.4 M
same,concentration above which BBBO is induced,[2],> 1.1 M
same,extent of BBBO compared with 3 μM·minute melittin,[3],similar
GIGAVLKVLTTGLPALISWIKRKRQQ-NH2 [melittin-CONH2],slope of focal leak reversibility versus dose,[4]; compared across four variants,highest slope
"RVGALKQTAIPVKSLIWGRQLIGLKT-NH2 [Mel-Scramble, reference compound]",BBBO,[4]; [5],did not induce BBBO
same,change in the permeability of 500 kDa dextran following perfusion,[4]; [5],no change
same,focal leaks during or 24 hours after perfusion,[4]; [5],no focal leaks were observed
